According to ChEMBL document CHEMBL3885881, “DrugMatrix”:

Species: Rattus norvegicus
Assay: DrugMatrix - Regimen: Daily Repeat
Assay type: toxicity, organism-based, Sprague-Dawley
Set-up: regimen Daily Repeat, gender Male, age 6-8 weeks
Conditions: in vivo, po, route oral GAVAGE, vehicle 100 % WATER; for ABSOLUTE BASOPHIL / ABSOLUTE EOSINOPHIL / ABSOLUTE LYMPHOCYTE / ABSOLUTE MONOCYTE / ABSOLUTE SEGMENTED NEUTROPHIL / BASOPHIL / EOSINOPHIL / ERYTHROCYTE COUNT / HEMATOCRIT / HEMOGLOBIN / LEUKOCYTE COUNT / LYMPHOCYTE / MEAN CORPUSCULAR HEMOGLOBIN / MEAN CORPUSCULAR HEMOGLOBIN CONCENTRATION / MEAN CORPUSCULAR VOLUME / MONOCYTE / NEUTROPHIL / NUCLEATED RED BLOOD CELLS / PLATELET COUNT: tissue Blood; for ALANINE AMINOTRANSFERASE / ALBUMIN / ALKALINE PHOSPHATASE / ASPARTATE AMINOTRANSFERASE / BLOOD UREA NITROGEN / CARBON DIOXIDE / CHLORIDE / CHOLESTEROL / CREATINE PHOSPHOKINASE / CREATININE / GLUCOSE / LACTATE DEHYDROGENASE / LIPASE / PHOSPHORUS / POTASSIUM / SODIUM / TOTAL BILIRUBIN / TOTAL PROTEIN / URIC ACID: tissue Plasma
[1] = 0 mg/kg, 72 h, dose level Control, time 3 day
[2] = 0 mg/kg, 120 h, dose level Control, time 5 day
[3] = 100 mg/kg, 72 h, dose level Low, time 3 day

NCC1(CC(=O)O)CCCCC1 [GABAPENTIN]
ABSOLUTE BASOPHIL [1]: 0 CELLS/uL | ABSOLUTE EOSINOPHIL [1]: 133.83 CELLS/uL | ABSOLUTE LYMPHOCYTE [1]: 11674.67 CELLS/uL | ABSOLUTE MONOCYTE [1]: 65.33 CELLS/uL | ABSOLUTE SEGMENTED NEUTROPHIL [1]: 1559.5 CELLS/uL | BASOPHIL [1]: 0% | EOSINOPHIL [1]: 1% | ERYTHROCYTE COUNT [1]: 5.26 x10E6/uL | HEMATOCRIT [1]: 34.15% | HEMOGLOBIN [1]: 13.6 G/DL | LEUKOCYTE COUNT [1]: 13.43 x10E3/uL | LYMPHOCYTE [1]: 86.83% | MEAN CORPUSCULAR HEMOGLOBIN [1]: 25.87 pg | MEAN CORPUSCULAR HEMOGLOBIN CONCENTRATION [1]: 39.85 G/DL | MEAN CORPUSCULAR VOLUME [1]: 64.93 fL | MONOCYTE [1]: 0.5% | NEUTROPHIL [1]: 11.67% | NUCLEATED RED BLOOD CELLS [1]: 0.17 /100WBC | PLATELET COUNT [1]: 1188.5 x10E3/uL | ALANINE AMINOTRANSFERASE [1]: 48.5 u/L | ALBUMIN [1]: 4.1 G/DL | ALKALINE PHOSPHATASE [1]: 338.83 u/L | ASPARTATE AMINOTRANSFERASE [1]: 84.17 u/L | BLOOD UREA NITROGEN [1]: 15.17 mg/dL | CARBON DIOXIDE [1]: 26.83 mmol/L | CHLORIDE [1]: 101.33 MEQ/L | CHOLESTEROL [1]: 77 mg/dL | CREATINE PHOSPHOKINASE [1]: 600.83 u/L | CREATININE [1]: 0.15 mg/dL | GLUCOSE [1]: 161.67 mg/dL | LACTATE DEHYDROGENASE [1]: 222.17 u/L | LIPASE [1]: 10.17 u/L | PHOSPHORUS [1]: 12.63 mg/dL | POTASSIUM [1]: 6.36 MEQ/L | SODIUM [1]: 143.17 MEQ/L | TOTAL BILIRUBIN [1]: 0.17 mg/dL | TOTAL PROTEIN [1]: 5.65 G/DL | URIC ACID [1]: 1.38 mg/dL | ABSOLUTE BASOPHIL [2]: 0 CELLS/uL | ABSOLUTE EOSINOPHIL [2]: 66.5 CELLS/uL | ABSOLUTE LYMPHOCYTE [2]: 10848.67 CELLS/uL | ABSOLUTE MONOCYTE [2]: 106.17 CELLS/uL | ABSOLUTE SEGMENTED NEUTROPHIL [2]: 1028.67 CELLS/uL | BASOPHIL [2]: 0% | EOSINOPHIL [2]: 0.5% | ERYTHROCYTE COUNT [2]: 5.42 x10E6/uL | HEMATOCRIT [2]: 34.53% | HEMOGLOBIN [2]: 14.07 G/DL | LEUKOCYTE COUNT [2]: 12.05 x10E3/uL | LYMPHOCYTE [2]: 90% | MEAN CORPUSCULAR HEMOGLOBIN [2]: 25.98 pg | MEAN CORPUSCULAR HEMOGLOBIN CONCENTRATION [2]: 40.73 G/DL | MEAN CORPUSCULAR VOLUME [2]: 63.78 fL | MONOCYTE [2]: 1% | NEUTROPHIL [2]: 8.5% | NUCLEATED RED BLOOD CELLS [2]: 0 /100WBC | PLATELET COUNT [2]: 1256.33 x10E3/uL | ALANINE AMINOTRANSFERASE [2]: 55.17 u/L | ALBUMIN [2]: 4.3 G/DL | ALKALINE PHOSPHATASE [2]: 333.83 u/L | ASPARTATE AMINOTRANSFERASE [2]: 81.33 u/L | BLOOD UREA NITROGEN [2]: 15.67 mg/dL | CARBON DIOXIDE [2]: 30 mmol/L | CHLORIDE [2]: 100.67 MEQ/L | CHOLESTEROL [2]: 67.67 mg/dL | CREATINE PHOSPHOKINASE [2]: 221.33 u/L | CREATININE [2]: 0.16 mg/dL | GLUCOSE [2]: 161.33 mg/dL | LACTATE DEHYDROGENASE [2]: 166.83 u/L | LIPASE [2]: 8.33 u/L | PHOSPHORUS [2]: 12.63 mg/dL | POTASSIUM [2]: 5.98 MEQ/L | SODIUM [2]: 144.63 MEQ/L | TOTAL BILIRUBIN [2]: 0.2 mg/dL | TOTAL PROTEIN [2]: 6.15 G/DL | URIC ACID [2]: 1.17 mg/dL | ABSOLUTE BASOPHIL [3]: 0 CELLS/uL | ABSOLUTE EOSINOPHIL [3]: 86.33 CELLS/uL | ABSOLUTE LYMPHOCYTE [3]: 13178.33 CELLS/uL | ABSOLUTE MONOCYTE [3]: 43 CELLS/uL | ABSOLUTE SEGMENTED NEUTROPHIL [3]: 1125.67 CELLS/uL | BASOPHIL [3]: 0% | EOSINOPHIL [3]: 0.67% | ERYTHROCYTE COUNT [3]: 5.28 x10E6/uL | HEMATOCRIT [3]: 34.3% | HEMOGLOBIN [3]: 13.73 G/DL | LEUKOCYTE COUNT [3]: 14.43 x10E3/uL | LYMPHOCYTE [3]: 91% | MEAN CORPUSCULAR HEMOGLOBIN [3]: 26.1 pg | MEAN CORPUSCULAR HEMOGLOBIN CONCENTRATION [3]: 40.1 G/DL | MEAN CORPUSCULAR VOLUME [3]: 65 fL | MONOCYTE [3]: 0.33% | NEUTROPHIL [3]: 8% | NUCLEATED RED BLOOD CELLS [3]: 0 /100WBC | PLATELET COUNT [3]: 1169.33 x10E3/uL | ALANINE AMINOTRANSFERASE [3]: 52.33 u/L | ALBUMIN [3]: 4.17 G/DL | ALKALINE PHOSPHATASE [3]: 377.67 u/L | ASPARTATE AMINOTRANSFERASE [3]: 80 u/L | BLOOD UREA NITROGEN [3]: 14.33 mg/dL | CARBON DIOXIDE [3]: 27.33 mmol/L | CHLORIDE [3]: 103 MEQ/L | CHOLESTEROL [3]: 71 mg/dL | CREATINE PHOSPHOKINASE [3]: 245 u/L | CREATININE [3]: 0.17 mg/dL | GLUCOSE [3]: 170.67 mg/dL | LACTATE DEHYDROGENASE [3]: 111.67 u/L | LIPASE [3]: 9.67 u/L | PHOSPHORUS [3]: 11.67 mg/dL | POTASSIUM [3]: 6.11 MEQ/L | SODIUM [3]: 144.87 MEQ/L | TOTAL BILIRUBIN [3]: 0.23 mg/dL | TOTAL PROTEIN [3]: 5.67 G/DL | URIC ACID [3]: 1.6 mg/dL
